Experiments:
Human adenovirus 5 [1] = assay: Antiviral activity against HAdV5 infected in 293beta5 cells assessed as inhibition of plaque formation at 10 uM after 7 days by GFP reporter gene assay relative to control; assay type: functional; conditions: Human mastadenovirus C, 293beta5, 168 h
Human adenovirus 5 [2] = assay: Antiviral activity against HAdV5 infected in human A549 cells assessed as inhibition of viral entry at 50 uM preincubated for 45 mins followed by cell addition measured after 48 hrs by GFP reporter gene assay relative to control; assay type: functional; conditions: Human mastadenovirus C
[3] = Cytotoxicity against human A549 cells assessed as cell viability after 48 hrs by Alamar blue assay; assay type: cell-based
Human adenovirus 5 [4] = assay: Antiviral activity against HAdV5 infected in 293beta5 cells assessed as inhibition of plaque formation after 7 days by GFP reporter gene assay; assay type: functional, organism-based; conditions: for IC50: Human mastadenovirus C, 293beta5, 168 h
[5] = Antiviral activity against HAdV16 infected in 293beta5 cells assessed as inhibition of plaque formation after 7 days by GFP reporter gene assay; assay type: functional, cell-based, Human adenovirus 16; conditions: Human mastadenovirus B, 293beta5, 168 h
[6] = Selectivity index, ratio of CC50 for human A549 cells to IC50 for inhibition of HAdV5 plaque formation in 293beta5 cells; assay type: functional
[7] = Selectivity index, ratio of CC50 for human A549 cells to IC50 for inhibition of HAdV16 plaque formation in 293beta5 cells; assay type: functional
Human adenovirus 5 [8] = assay: Antiviral activity against HAdV5 infected in human A549 cells assessed as inhibition of viral genome entry in nucleus by measuring nuclear associated viral DNA level at 50 uM after 45 mins by real time PCR method (reference value: 78.55 +/- 1.37%); assay type: functional; set-up: scale not given: the % may be the effect or the level left
Human adenovirus 5 [9] = assay: Antiviral activity against HAdV5 infected in human A549 cells assessed as reduction in viral yield at 50 uM after 48 hrs by virus burst size assay relative to control; assay type: functional
[10] = Antiviral activity against HAdV16 infected in human A549 cells assessed as reduction in viral yield at 50 uM after 48 hrs by virus burst size assay relative to control; assay type: functional, Human adenovirus 16
Human adenovirus 5 [11] = assay: Antiviral activity against HAdV5 infected in human A549 cells assessed as inhibition of viral DNA replication at 50 uM after 24 hrs by quantitative real time PCR method relative to control; assay type: functional; conditions: Human mastadenovirus C, A549, 24 h
A549 = assay: Effect on GAPDH gene expression in human A549 cells at 50 uM after 24 hrs by quantitative real time PCR method; assay type: ADME, cell-based; conditions: a549, 24 h

SMILES	inhibition at 10 µM (Human adenovirus 5 [1])	inhibition at 50 µM (Human adenovirus 5 [2])	CC50 at 48 h [3]	also measured
COc1ccc(NC(=O)N2CCN(C(=O)c3cc4ccccc4o3)CC2C)cc1 (configuration not stated)	34%	< 20%	–	–
O=C(c1cc2ccccc2o1)N1CCN(C(=O)Nc2ccc(Cl)cc2)C(c2ccccc2)C1 (configuration not stated)	100%	33%	194 µM	inhibition (Human adenovirus 5 [4]): Dose-dependent effect; IC50 (Human adenovirus 5 [4]): 2.5 µM; IC50 [5]: 3.4 µM; Ratio CC50/IC50 [6]: 79; Ratio CC50/IC50 [7]: 56.9; Activity (Human adenovirus 5 [8]): 77.71%; fold change (FC) (Human adenovirus 5 [9]): 9.9; fold change (FC) [10]: 27.4; inhibition at 50 µM (Human adenovirus 5 [11]): 78.9%; Activity (A549): Non-toxic
CC1CN(C(=O)C(C)(C)C)CCN1C(=S)Nc1ccc([N+](=O)[O-])cc1 (configuration not stated)	64%	< 20%	–	–
CC1CN(C(=O)c2cc3ccccc3o2)CCN1C(=O)Nc1ccc(C#N)cc1 (configuration not stated)	83%	78%	118 µM	–
CC(C)(C)C(=O)N1CCN(C(=O)Nc2ccc([N+](=O)[O-])cc2)C(c2ccccc2)C1 (configuration not stated)	44%	60%	102 µM	–
CC1CN(C(=O)OC(C)(C)C)CCN1C(=O)Nc1ccc(C(F)(F)F)cc1 (configuration not stated)	31%	57%	137 µM	–
CC(C)(C)OC(=O)N1CCN(C(=O)Nc2ccc(F)cc2)C(c2ccccc2)C1 (configuration not stated)	76%	70%	110 µM	–
COc1ccc(NC(=O)N2CCN(C(=O)OC(C)(C)C)CC2C)cc1 (configuration not stated)	49%	–	–	–
CC1CN(C(=O)C(C)(C)C)CCN1C(=O)c1ccc([N+](=O)[O-])cc1 (configuration not stated)	23%	< 20%	–	–
CC1CN(C(=O)c2cc3ccccc3o2)CCN1C(=O)Nc1ccccc1 (configuration not stated)	11%	0%	–	–
N#Cc1ccc(NC(=O)N2CCN(C(=O)c3cc4ccccc4o3)CC2c2ccccc2)cc1 (configuration not stated)	98%	63%	200 µM	inhibition (Human adenovirus 5 [4]): Dose-dependent effect; IC50 (Human adenovirus 5 [4]): 4.7 µM; IC50 [5]: 3.9 µM; Ratio CC50/IC50 [6]: 42.7; Ratio CC50/IC50 [7]: 51.2; Activity (Human adenovirus 5 [8]): 81.05%; fold change (FC) (Human adenovirus 5 [9]): 16.9; fold change (FC) [10]: 60.9; inhibition at 50 µM (Human adenovirus 5 [11]): 88.5%; Activity (A549): Non-toxic
CC1CN(C(=O)OC(C)(C)C)CCN1C(=O)Nc1ccccc1[N+](=O)[O-] (configuration not stated)	50%	0%	–	–
CC1CN(C(=O)OC(C)(C)C)CCN1C(=O)Nc1cc(C(F)(F)F)ccc1Cl (configuration not stated)	96%	31%	63.5 µM	–
CC(C)(C)OC(=O)N1CCN(C(=O)Nc2ccccc2[N+](=O)[O-])C(c2ccccc2)C1 (configuration not stated)	100%	62%	82.2 µM	–
CC1CN(C(=O)c2ccccc2)CCN1C(=S)Nc1ccc([N+](=O)[O-])cc1 (configuration not stated)	94%	41%	31.4 µM	–
CC(C)(C)OC(=O)N1CCN(C(=O)Nc2ccc(C(F)(F)F)cc2)C(c2ccccc2)C1 (configuration not stated)	71%	75%	42.1 µM	–
CC1CN(C(=O)OC(C)(C)C)CCN1C(=O)c1ccc([N+](=O)[O-])cc1 (configuration not stated)	34%	< 20%	–	–
CC1CN(C(=O)c2cc3ccccc3o2)CCN1C(=O)Nc1ccc(Cl)cc1 (configuration not stated)	70%	36%	144 µM	–
COc1ccc(NC(=O)N2CCN(C(=O)OC(C)(C)C)CC2c2ccccc2)cc1 (configuration not stated)	79%	39%	133 µM	–
COc1ccc(C(=O)N2CCN(C(=O)OC(C)(C)C)CC2C)cc1 (configuration not stated)	34%	< 20%	–	–
COc1ccccc1NC(=O)N1CCN(C(=O)c2cc3ccccc3o2)CC1C (configuration not stated)	16%	0%	–	–
CC(C)(C)OC(=O)N1CCN(C(=O)Nc2ccc(Cl)c(C(F)(F)F)c2)C(c2ccccc2)C1 (configuration not stated)	100%	93%	27.5 µM	–
COc1ccc(NC(=O)N2CCN(C(=O)C(C)(C)C)CC2c2ccccc2)cc1 (configuration not stated)	70%	0%	199 µM	–
CC1CN(C(=O)OC(C)(C)C)CCN1C(=O)Nc1ccc([N+](=O)[O-])cc1 (configuration not stated)	91%	65%	143 µM	–
COc1ccc(NC(=O)N2CCN(C(=O)c3ccccc3)CC2C)cc1 (configuration not stated)	0%	50%	–	–

SMILES	inhibition at 10 µM (Human adenovirus 5 [1])	inhibition at 50 µM (Human adenovirus 5 [2])	CC50 at 48 h [3]	also measured
CC1CN(C(=O)c2ccccc2)CCN1C(=O)c1ccc([N+](=O)[O-])cc1 (configuration not stated)	0%	< 20%	–	–
CC1CN(C(=O)c2cc3ccccc3o2)CCN1C(=O)Nc1ccc(C(F)(F)F)cc1 (configuration not stated)	92%	60%	82.2 µM	–
CC1CN(C(=O)c2cc3ccccc3o2)CCN1C(=O)Nc1ccc(F)cc1 (configuration not stated)	92%	0%	220 µM	–
CC1CN(C(=O)c2cc3ccccc3o2)CCN1C(=O)Nc1ccc([N+](=O)[O-])cc1 (configuration not stated)	94%	86%	51.1 µM	–
O=C(c1cc2ccccc2o1)N1CCN(C(=O)Nc2ccc(F)cc2)C(c2ccccc2)C1 (configuration not stated)	99%	88%	12.5 µM	–
CC(C)(C)OC(=O)N1CCN(C(=O)Nc2cc(C(F)(F)F)ccc2Cl)C(c2ccccc2)C1 (configuration not stated)	100%	89%	93.4 µM	–
CC1CN(C(=O)c2cc3ccccc3o2)CCN1C(=O)Nc1ccc(F)cc1F (configuration not stated)	34%	0%	–	–
COc1ccc(C(=O)N2CCN(C(=O)C(C)(C)C)CC2C)cc1 (configuration not stated)	0%	< 20%	–	–
CC1CN(C(=O)OC(C)(C)C)CCN1C(=S)Nc1ccc([N+](=O)[O-])cc1 (configuration not stated)	100%	< 20%	26.3 µM	–
CC1CN(C(=O)C(C)(C)C)CCN1C(=O)Nc1ccc([N+](=O)[O-])cc1 (configuration not stated)	0%	50%	–	–
CC(C)(C)OC(=O)N1CCN(C(=O)Nc2ccc(C#N)cc2)C(c2ccccc2)C1 (configuration not stated)	67%	45%	91.3 µM	–
O=C(c1cc2ccccc2o1)N1CCN(C(=O)Nc2ccc(C(F)(F)F)cc2)C(c2ccccc2)C1 (configuration not stated)	100%	61%	70.7 µM	–
CC1CN(C(=O)OC(C)(C)C)CCN1C(=O)Nc1ccc(Cl)cc1 (configuration not stated)	62%	37%	150 µM	–
CC1CN(C(=O)c2cc3ccccc3o2)CCN1C(=O)Nc1ccccc1F (configuration not stated)	51%	0%	–	–
CC(C)(C)OC(=O)N1CCN(C(=O)Nc2ccc(Cl)cc2)C(c2ccccc2)C1 (configuration not stated)	86%	96%	17.1 µM	–
O=C(c1cc2ccccc2o1)N1CCN(C(=O)Nc2ccccc2[N+](=O)[O-])C(c2ccccc2)C1 (configuration not stated)	100%	38%	132 µM	inhibition (Human adenovirus 5 [4]): Dose-dependent effect; IC50 (Human adenovirus 5 [4]): 2.5 µM; IC50 [5]: 2.3 µM; Ratio CC50/IC50 [6]: 53.3; Ratio CC50/IC50 [7]: 57.3; Activity (Human adenovirus 5 [8]): 79.26%; fold change (FC) (Human adenovirus 5 [9]): 34.5; fold change (FC) [10]: 46.5; inhibition at 50 µM (Human adenovirus 5 [11]): 73.1%; Activity (A549): Non-toxic
CC1CN(C(=O)c2ccccc2)CCN1C(=O)Nc1ccc([N+](=O)[O-])cc1 (configuration not stated)	72%	50%	–	–
COc1ccc(C(=O)N2CCN(C(=O)c3ccccc3)CC2C)cc1 (configuration not stated)	0%	0%	–	–
COc1ccc(NC(=O)N2CCN(C(=O)C(C)(C)C)CC2C)cc1 (configuration not stated)	0%	< 20%	–	–
CC1CN(C(=O)c2cc3ccccc3o2)CCN1C(=O)Nc1ccccc1Br (configuration not stated)	56%	44%	–	–
Cc1ccc(NC(=O)N2CCN(C(=O)OC(C)(C)C)CC2c2ccccc2)cc1 (configuration not stated)	63%	65%	165 µM	–
CC1CN(C(=O)OC(C)(C)C)CCN1C(=O)Nc1ccc(Cl)c(C(F)(F)F)c1 (configuration not stated)	100%	72%	20.8 µM	–
CC(C)(C)C(=O)N1CCN(C(=O)Nc2ccc(C#N)cc2)C(c2ccccc2)C1 (configuration not stated)	84%	74%	147 µM	–
CC1CN(C(=O)c2cc3ccccc3o2)CCN1C(=O)Nc1ccccc1[N+](=O)[O-] (configuration not stated)	91%	0%	203 µM	–
